Common to all, as to assay type: cell-based
Conditions in all cases: CreLuc reporter gene assay

The target in assay [1] is T1, hNPY2R (Homo sapiens, UniProt P49146).
T1 construct: expressed in transfected cells; host or cells: HEK-293 cells carrying a CRE-luciferase reporter gene
T1 sequence (P49146 1-381): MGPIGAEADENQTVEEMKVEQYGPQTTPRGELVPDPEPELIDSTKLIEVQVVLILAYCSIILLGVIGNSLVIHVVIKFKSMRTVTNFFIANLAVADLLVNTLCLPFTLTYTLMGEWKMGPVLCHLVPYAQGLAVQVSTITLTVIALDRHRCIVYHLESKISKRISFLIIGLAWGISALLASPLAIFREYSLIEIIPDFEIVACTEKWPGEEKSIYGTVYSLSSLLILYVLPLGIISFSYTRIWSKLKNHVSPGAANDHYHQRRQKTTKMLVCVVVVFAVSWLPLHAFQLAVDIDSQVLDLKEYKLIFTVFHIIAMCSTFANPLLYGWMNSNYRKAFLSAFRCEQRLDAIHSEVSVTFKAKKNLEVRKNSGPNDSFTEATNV
As to the kind of experiment: hNPY2R CreLuc reporter gene assay in 0.5% and 100% plasma. From the text: Example 1: hGLPR/hGIPR/hNPY2R CreLuc Assay in 0.5% and 100% Plasma
CHO and HEK-293 recombinant cell lines express a luciferase reporter gene under control of the cAMP responsive element (CRE). As a second recombinant protein the GLP-1 and NPY2 receptors were expressed in the reporter gene HEK cells, and the GIP receptor was expressed in the reporter gene CHO cells, respectively. Stimulation of these recombinant cells with an agonist leads to an increase of intracellular cAMP levels. In the presence of cAMP, the transcription factor CRE binding protein (CREB) binds to the CRE and to the CREB binding protein (CBP), which leads to transcription of the luciferase reporter gene. Peptides upon serial-dilution in 100% DMSO were transferred into 384-well assay plates with 5 μl pre-dispensed assay buffer (1×HBSS, 20 mM HEPES, pH7.4 supplemented with 0.5% human plasma) using acoustic dispensing on a Labcyte ECHO. Cryo-preserved transgenic reporter gene cells were thawed in assay buffer. 20 μl (10.000 cells/well) were added to the plate with the peptides and incubated for 4 hours at 37° C. in a humidified incubator. Following incubation, assay plates are equilibrated to room temperature, followed by addition of 25 μl of Bright-GIo™ Luciferase reagent, incubation at room temperature for 10 minutes and analysis of luminescence (Envision Reader). Concentration response evaluation of compounds was performed with 8 concentrations of peptides (covering four decades). EC50 values were calculated by non-linear regression using sigmoid concentration-response with variable slope. The same assays were run in the presence of 100% plasma with no additional buffer constituents.
On the technique in general: Reporter assays use an easily measured gene product as a stand-in for the process of interest.

Assay [2] deals with T2, hGLP1R (Homo sapiens, UniProt P43220).
T2 construct: expressed in transfected cells; host or cells: HEK-293 cells carrying a CRE-luciferase reporter gene
As to the kind of experiment: hGLP1R CreLuc reporter gene assay in 0.5% and 100% plasma. In short, it runs like this:
(§1)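 HEK cells (GLP-1R, NPY2R) or CHO cells (GIPR) carrying a CRE-luciferase reporter, incubated 4 h at 37 °C with peptides in HBSS/20 mM HEPES pH 7.4 plus 0.5% human plasma, or in 100% plasma. Luminescence read; EC50 from 8-point variable-slope sigmoid fits.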

The target in assay [3] is T3, hGIPR (Homo sapiens, UniProt P48546).
T3 construct: expressed in transfected cells; host or cells: CHO cells carrying a CRE-luciferase reporter gene
T3 sequence (P48546 22-466): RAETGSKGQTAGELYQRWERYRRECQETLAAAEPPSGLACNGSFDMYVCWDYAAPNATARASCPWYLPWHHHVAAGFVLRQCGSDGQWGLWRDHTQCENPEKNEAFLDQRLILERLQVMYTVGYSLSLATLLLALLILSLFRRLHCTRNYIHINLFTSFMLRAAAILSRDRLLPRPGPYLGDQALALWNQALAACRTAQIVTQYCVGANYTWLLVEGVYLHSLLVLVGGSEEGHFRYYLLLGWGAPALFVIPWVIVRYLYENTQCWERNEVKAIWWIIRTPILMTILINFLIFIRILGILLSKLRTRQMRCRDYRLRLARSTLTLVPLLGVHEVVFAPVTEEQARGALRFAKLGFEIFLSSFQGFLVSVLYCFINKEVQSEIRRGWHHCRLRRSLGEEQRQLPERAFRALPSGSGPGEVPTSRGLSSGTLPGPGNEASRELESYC
Description: hGIPR CreLuc reporter gene assay in 0.5% and 100% plasma. In short, it runs like this: as §1

The mark [4] stands for this setting: 0.5% human plasma, read-out: hNPY2R 0.5% hP.
Setting [5] is: 100% human plasma, read-out: hNPY2R 100% hP.
Setting [6] is: 0.5% human plasma, read-out: hGLP1R 0.5% hP.
Setting [7] is: 0.5% human plasma, read-out: hGIPR 0.5% hP.
Setting [8] is: 100% human plasma, read-out: hGIPR 100% hP.

pEC50: −log10 of the molar value. Where two headings read alike, the source gives them in different places.

T2 sequence (P43220 24-463): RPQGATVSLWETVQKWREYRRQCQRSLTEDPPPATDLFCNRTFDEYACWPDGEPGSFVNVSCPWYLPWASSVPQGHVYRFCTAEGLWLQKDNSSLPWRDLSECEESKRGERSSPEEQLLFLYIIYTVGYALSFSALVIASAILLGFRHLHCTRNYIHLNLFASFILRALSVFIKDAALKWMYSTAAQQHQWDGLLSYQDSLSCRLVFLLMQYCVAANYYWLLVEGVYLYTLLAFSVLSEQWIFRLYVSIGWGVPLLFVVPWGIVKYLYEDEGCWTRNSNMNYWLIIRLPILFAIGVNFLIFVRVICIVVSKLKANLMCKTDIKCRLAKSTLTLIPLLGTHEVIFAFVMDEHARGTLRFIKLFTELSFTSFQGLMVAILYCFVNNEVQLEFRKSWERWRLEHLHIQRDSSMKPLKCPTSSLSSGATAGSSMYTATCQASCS

On to `CC[C@H](C)[C@H](NC(=O)[C@H](CC(C)C)NC(=O)[C@H](Cc1c[nH]c2ccccc12)NC(=O)[C@H](CCC(=O)O)NC(=O)[C@@H](NC(=O)[C@H](Cc1ccccc1)NC(=O)[C@H](C)NC(=O)C(C)(C)NC(=O)[C@H](CCC(N)=O)NC(=O)[C@H](C)NC(=O)[C@H](CCC(N)=O)NC(=O)[C@H](CCCCN)NC(=O)[C@H](CCC(=O)O)NC(=O)[C@H](CC(C)C)NC(=O)C(C)(C)NC(=O)[C@@H](NC(=O)[C@H](CO)NC(=O)[C@H](Cc1ccc(O)cc1)NC(=O)[C@H](CC(=O)O)NC(=O)[C@H](CO)NC(=O)[C@@H](NC(=O)[C@H](Cc1ccccc1)NC(=O)[C@@H](NC(=O)CNC(=O)[C@H](CCC(=O)O)NC(=O)C(C)(C)NC(=O)[C@@H](N)Cc1ccc(O)cc1)[C@@H](C)O)[C@@H](C)O)[C@@H](C)CC)C(C)C)C(=O)N[C@@H](CCCCNC(=O)[C@@H](N)CCCCNC(=O)CC[C@H](NC(=O)CC[C@H](NC(=O)CC[C@H](NC(=O)CC[C@H](NC(=O)CC[C@H](NC(=O)CC[C@H](NC(=O)CCCCCCCCCCCCCCCCCCC(=O)O)C(=O)O)C(=O)O)C(=O)O)C(=O)O)C(=O)O)C(=O)O)C(=O)NCC(=O)NCC(=O)N1CCC[C@H]1C(=O)N[C@@H](CO)C(=O)N[C@@H](CO)C(=O)NCC(=O)N[C@@H](C)C(=O)N[C@@H](CO)C(=O)N[C@@H](CC(C)C)C(=O)N[C@@H](CCCNC(=N)N)C(=O)N[C@H](Cc1c[nH]cn1)C(=O)N[C@@H](Cc1ccc(O)cc1)C(=O)N[C@@H](Cc1ccc(O)cc1)C(=O)N[C@@H](CC(N)=O)C(=O)N[C@@H](Cc1c[nH]c2ccccc12)C(=O)N[C@@H](CC(C)C)C(=O)N[C@H](C(=O)N[C@H](CCCNC(=N)N)C(=O)N[C@@H](CCC(N)=O)C(=O)N[C@@H](CCCNC(=N)N)C(=O)N[C@H](Cc1ccc(O)cc1)C(N)=O)[C@@H](C)O` [Compound 21, Y-Aib-E-G-T-F-T-S-D-Y-S-I-Aib-L-E-K-Q-A-Q-Aib-A-F-V-E-W-L-I-K(1,3)-G-G-P-S-S-G-A-S-L-R-DHis-Y-Y-N-W-L-T-DArg-Q-R-DTyr-NH2.C20DA-gGlu-gGlu-gGlu-gGlu-gGlu-gGlu-eLys(1,2)], for which the pEC50 in assay [1] (setting [4]) is less than 7.00; in assay [1] (setting [5]), less than 6.00; in assay [2] (setting [6]), 9.96; in assay [2] (100% human plasma, read-out: hGLP1R 100% hP) it was 8.78; in assay [3] (setting [7]), 9.85; in assay [3] (setting [8]) it was 9.06.
For the compound `CC[C@H](C)[C@H](NC(=O)[C@H](CC(C)C)NC(=O)[C@H](Cc1c[nH]c2ccccc12)NC(=O)[C@H](CCC(N)=O)NC(=O)[C@@H](NC(=O)[C@H](Cc1ccccc1)NC(=O)[C@H](C)NC(=O)C(C)(C)NC(=O)[C@H](CCC(N)=O)NC(=O)[C@H](C)NC(=O)[C@H](CCC(N)=O)NC(=O)[C@H](CCC(=O)O)NC(=O)[C@H](CCC(=O)O)NC(=O)[C@H](CC(C)C)NC(=O)C(C)(C)NC(=O)[C@@H](NC(=O)[C@H](CO)NC(=O)[C@H](Cc1ccc(O)cc1)NC(=O)[C@H](CC(=O)O)NC(=O)[C@H](CO)NC(=O)[C@@H](NC(=O)[C@H](Cc1ccccc1)NC(=O)[C@@H](NC(=O)CNC(=O)[C@H](CCC(=O)O)NC(=O)C(C)(C)NC(=O)[C@@H](N)Cc1ccc(O)cc1)[C@@H](C)O)[C@@H](C)O)[C@@H](C)CC)C(C)C)C(=O)N[C@@H](CCCCNC(=O)[C@@H](N)CCCCNC(=O)CC[C@H](NC(=O)CC[C@H](NC(=O)CC[C@H](NC(=O)[C@H](CCC(=O)O)NC(=O)CC[C@H](NC(=O)CC[C@H](NC(=O)CCCCCCCCCCCCCCCCCCC(=O)O)C(=O)O)C(=O)O)C(=O)O)C(=O)O)C(=O)O)C(=O)NCC(=O)NCC(=O)N1CCC[C@H]1C(=O)N[C@@H](CO)C(=O)N[C@@H](CO)C(=O)NCC(=O)N[C@@H](C)C(=O)N[C@@H](CO)C(=O)N[C@@H](CC(C)C)C(=O)N[C@@H](CCCNC(=N)N)C(=O)N[C@@H](Cc1c[nH]cn1)C(=O)N[C@@H](Cc1ccc(O)cc1)C(=O)N[C@@H](Cc1ccc(O)cc1)C(=O)N[C@@H](CC(N)=O)C(=O)N[C@@H](Cc1c[nH]c2ccccc12)C(=O)N[C@@H](CC(C)C)C(=O)N[C@H](C(=O)N[C@@H](CCCNC(=N)N)C(=O)N[C@@H](CCC(N)=O)C(=O)N[C@@H](CCCNC(=N)N)C(=O)N[C@@H](Cc1ccc(O)cc1)C(N)=O)[C@@H](C)O` [Compound 30, Y-Aib-E-G-T-F-T-S-D-Y-S-I-Aib-L-E-E-Q-A-Q-Aib-A-F-V-Q-W-L-I-K(1,3)-GGPSSGASLRHYYNWLTRQRY-NH2.C20DA-gGlu-gGlu-Glu-gGlu-gGlu-gGlu-eLys(1,2)], the pEC50 in assay [1] (setting [4]) was 7.88; in assay [1] (setting [5]), 7.25; in assay [2] (setting [6]), 10.10; in assay [3] (setting [7]) it was 9.89; in assay [3] (setting [8]), 8.97.
In the case of `CC[C@H](C)[C@H](NC(=O)[C@H](CC(C)C)NC(=O)[C@H](Cc1c[nH]c2ccccc12)NC(=O)[C@H](CCC(=O)O)NC(=O)[C@@H](NC(=O)[C@H](Cc1ccccc1)NC(=O)[C@H](C)NC(=O)C(C)(C)NC(=O)[C@H](CCC(N)=O)NC(=O)[C@H](C)NC(=O)[C@H](CCC(N)=O)NC(=O)[C@H](CCCCN)NC(=O)[C@H](CCC(=O)O)NC(=O)[C@H](CC(C)C)NC(=O)C(C)(C)NC(=O)[C@@H](NC(=O)[C@H](CO)NC(=O)[C@H](Cc1ccc(O)cc1)NC(=O)[C@H](CC(=O)O)NC(=O)[C@H](CO)NC(=O)[C@@H](NC(=O)[C@H](Cc1ccccc1)NC(=O)[C@@H](NC(=O)CNC(=O)[C@H](CCC(=O)O)NC(=O)C(C)(C)NC(=O)[C@@H](N)Cc1ccc(O)cc1)[C@@H](C)O)[C@@H](C)O)[C@@H](C)CC)C(C)C)C(=O)N[C@@H](CCCCNC(=O)[C@@H](N)CCCCNC(=O)CC[C@H](NC(=O)CC[C@H](NC(=O)CC[C@H](NC(=O)CC[C@H](NC(=O)CC[C@H](NC(=O)CC[C@H](NC(=O)CCCCCCCCCCCCCCCCCCC(=O)O)C(=O)O)C(=O)O)C(=O)O)C(=O)O)C(=O)O)C(=O)O)C(=O)NCC(=O)NCC(=O)N1CCC[C@H]1C(=O)N[C@@H](CO)C(=O)N[C@@H](CO)C(=O)NCC(=O)N[C@@H](CCC(N)=O)C(=O)N[C@@H](CO)C(=O)N[C@@H](CC(C)C)C(=O)N[C@@H](CCCNC(=N)N)C(=O)N[C@@H](Cc1c[nH]cn1)C(=O)N[C@@H](Cc1ccc(O)cc1)C(=O)N[C@@H](Cc1ccc(O)cc1)C(=O)N[C@@H](CC(N)=O)C(=O)N[C@@H](Cc1c[nH]c2ccccc12)C(=O)N[C@@H](CC(C)C)C(=O)N[C@H](C(=O)N[C@@H](CCCNC(=N)N)C(=O)N[C@@H](CCC(N)=O)C(=O)N[C@@H](CCCNC(=N)N)C(=O)N[C@@H](Cc1ccc(O)cc1)C(N)=O)[C@@H](C)O` [Compound 84, Y-Aib-E-G-T-F-T-S-D-Y-S-I-Aib-L-E-K-Q-A-Q-Aib-A-F-V-E-W-L-I-K(1,3)-GGPSSGQSLRHYYNWLTRQRY-NH2.C20DA-gGlu-gGlu-gGlu-gGlu-gGlu-gGlu-eLys(1,2)], the pEC50 is 7.45 in assay [1] (setting [5]), 9.89 in assay [2] (setting [6]), 9.64 in assay [3] (setting [7]) and 8.84 in assay [3] (setting [8]).

The values above are taken from patent US20240247080A1, “GLP1/GIP/NPY2 RECEPTOR TRIPLE AGONISTS” (Boehringer Ingelheim International GmbH, priority 2022, published 2024).
